Laboratory results published in US6911220B1, “Allogeneic and xenogeneic transplantation” (The General Hospital Corporation, priority 1992, dated 2005).

Tested on: pig kidney transplants in Cynomolgus monkeys
Assay: Pig to monkey kidney xenotransplantation

N=C(N)NCCCCCCC(=O)NC(O)C(=O)NCCCCNCCCN (stereo not shown) [DSG, 15-deoxyspergualin]
suppression of natural antibody function (6 mg/kg/day, i.v., pig to cynomolgus kidney transplants): useful in suppressing natural antibody function | usefulness of combination treatment (cyclosporine 15 mg/kg/day 28 days + 15-deoxyspergualin 6 mg/kg/day two weeks + pig SCF and IL-3 10 μg/kg/day i.v. two weeks, pig grafts and stem cells): useful | day until which the pig kidney functioned (splenectomy + pig liver perfusion, cyclosporine 15 mg/kg/day iv and DSG 6 mg/kg/day iv post-transplant, removed on day 8): 7 days | IgM natural antibodies in serum after liver perfusion (with cyclosporine 15 mg/kg/day iv and DSG 6 mg/kg/day iv): did not appear in the serum thereafter
